In PubChem BioAssay (NCI):
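Step 1: Grow cells in 96-well plates. Step 2: Expose to compound for 48 hours at 5 concentrations. Step 3: Interpolate endpoints linearly; if unreached, use highest concentration. GI50: concentration for 50% inhibition of growth. The concentration for full growth arrest is given as TGI.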

Tests used:
Assay in all cases: NCI-60 cell line screen, 48 h
MCF7 breast = system: MCF7 breast
HL-60(TB) leukemia = system: HL-60(TB) leukemia
UACC-62 melanoma = system: UACC-62 melanoma
HCT-15 colon = system: HCT-15 colon
SN12C renal = system: SN12C renal
HT29 colon = system: HT29 colon
EKVX NSCLC = system: EKVX NSCLC
DU-145 prostate = system: DU-145 prostate
UO-31 renal = system: UO-31 renal
SNB-75 CNS = system: SNB-75 CNS
SF-539 CNS = system: SF-539 CNS
OVCAR-4 ovarian = system: OVCAR-4 ovarian
SNB-19 CNS = system: SNB-19 CNS
SK-MEL-28 melanoma = system: SK-MEL-28 melanoma
COLO 205 colon = system: COLO 205 colon
MDA-MB-435 = system: MDA-MB-435
HOP-92 NSCLC = system: HOP-92 NSCLC
SK-MEL-5 melanoma = system: SK-MEL-5 melanoma
U251 CNS = system: U251 CNS
786-0 renal = system: 786-0 renal
KM12 colon = system: KM12 colon
NCI-H460 lung = system: NCI-H460 lung
SF-268 CNS = system: SF-268 CNS
A549 NSCLC = system: A549 NSCLC
SK-OV-3 ovarian = system: SK-OV-3 ovarian
IGROV1 ovarian = system: IGROV1 ovarian
ACHN renal = system: ACHN renal
HCC-2998 colon = system: HCC-2998 colon
MDA-MB-231 breast = system: MDA-MB-231 breast
OVCAR-8 ovarian = system: OVCAR-8 ovarian
SW-620 colon = system: SW-620 colon
CAKI-1 renal = system: CAKI-1 renal
LOX IMVI melanoma = system: LOX IMVI melanoma
TK-10 renal = system: TK-10 renal
SR leukemia = system: SR leukemia
NCI-H23 lung = system: NCI-H23 lung
UACC-257 melanoma = system: UACC-257 melanoma
CCRF-CEM leukemia = system: CCRF-CEM leukemia
A498 renal = system: A498 renal
RPMI-8226 leukemia = system: RPMI-8226 leukemia
MALME-3M melanoma = system: MALME-3M melanoma
NCI-H522 lung = system: NCI-H522 lung
RXF 393 renal = system: RXF 393 renal
NCI-H226 lung = system: NCI-H226 lung
SK-MEL-2 melanoma = system: SK-MEL-2 melanoma
NCI/ADR-RES ovarian = system: NCI/ADR-RES ovarian
M14 melanoma = system: M14 melanoma
HCT-116 colon = system: HCT-116 colon
OVCAR-3 ovarian = system: OVCAR-3 ovarian
SF-295 CNS = system: SF-295 CNS
HS 578T breast = system: HS 578T breast
T-47D breast = system: T-47D breast
MOLT-4 leukemia = system: MOLT-4 leukemia
OVCAR-5 ovarian = system: OVCAR-5 ovarian
PC-3 prostate = system: PC-3 prostate
HOP-62 NSCLC = system: HOP-62 NSCLC
BT-549 breast = system: BT-549 breast
K-562 leukemia = system: K-562 leukemia

COc1cc2c(cc1OCCOS(C)(=O)=O)N=C[C@@H]1CCCN1C2=O
TGI (MCF7 breast): > 100 µM | TGI (HL-60(TB) leukemia): 55.9 µM | GI50 (UACC-62 melanoma): 19.4 µM | TGI (UACC-62 melanoma): 42.5 µM | GI50 (HCT-15 colon): 16.5 µM | TGI (HCT-15 colon): 31.1 µM | TGI (SN12C renal): > 100 µM | TGI (HT29 colon): > 100 µM | TGI (EKVX NSCLC): > 100 µM | TGI (DU-145 prostate): > 100 µM | GI50 (UO-31 renal): 15.2 µM | TGI (UO-31 renal): 33.1 µM | TGI (SNB-75 CNS): > 100 µM | GI50 (SF-539 CNS): 18.6 µM | TGI (SF-539 CNS): 47.2 µM | TGI (OVCAR-4 ovarian): 58.5 µM | TGI (SNB-19 CNS): > 100 µM | TGI (SK-MEL-28 melanoma): 61.5 µM | TGI (COLO 205 colon): > 100000 nM | TGI (MDA-MB-435): 37.7 µM | TGI (HOP-92 NSCLC): 50.6 µM | GI50 (SK-MEL-5 melanoma): 16.9 µM | TGI (SK-MEL-5 melanoma): 42.2 µM | GI50 (U251 CNS): 17.1 µM | TGI (U251 CNS): 31.7 µM | GI50 (786-0 renal): 17 µM | TGI (786-0 renal): 30.7 µM | TGI (KM12 colon): > 100 µM | TGI (NCI-H460 lung): > 100 µM | TGI (SF-268 CNS): > 100 µM | TGI (A549 NSCLC): > 100 µM | TGI (SK-OV-3 ovarian): > 100 µM | TGI (IGROV1 ovarian): 99.1 µM | GI50 (ACHN renal): 16 µM | TGI (ACHN renal): 29.5 µM | TGI (HCC-2998 colon): > 100000 nM | GI50 (MDA-MB-231 breast): 16.5 µM | TGI (MDA-MB-231 breast): 39300 nM | TGI (OVCAR-8 ovarian): > 100 µM | GI50 (SW-620 colon): 14.6 µM | TGI (SW-620 colon): 38.4 µM | GI50 (CAKI-1 renal): 17.7 µM | TGI (CAKI-1 renal): 32100 nM | GI50 (LOX IMVI melanoma): 15.7 µM | TGI (LOX IMVI melanoma): 29.5 µM | GI50 (TK-10 renal): 18.1 µM | TGI (TK-10 renal): 33.2 µM | GI50 (SR leukemia): 11.1 µM | TGI (SR leukemia): 32.9 µM | GI50 (NCI-H23 lung): 12.2 µM | TGI (NCI-H23 lung): 25.2 µM | GI50 (UACC-257 melanoma): 18.2 µM | TGI (UACC-257 melanoma): 42.8 µM | GI50 (CCRF-CEM leukemia): 14.5 µM | TGI (CCRF-CEM leukemia): 54.9 µM | GI50 (A498 renal): 17.1 µM | TGI (A498 renal): 48.7 µM | GI50 (RPMI-8226 leukemia): 12.2 µM | TGI (RPMI-8226 leukemia): 48.8 µM | GI50 (MALME-3M melanoma): 13.6 µM | TGI (MALME-3M melanoma): 31.6 µM | GI50 (NCI-H522 lung): 10.9 µM | TGI (NCI-H522 lung): 30.1 µM | TGI (RXF 393 renal): > 100 µM | GI50 (NCI-H226 lung): 15.4 µM | TGI (NCI-H226 lung): 33.5 µM | TGI (SK-MEL-2 melanoma): > 100 µM | GI50 (NCI/ADR-RES ovarian): 13.5 µM | TGI (NCI/ADR-RES ovarian): 26.7 µM | GI50 (M14 melanoma): 18.7 µM | TGI (M14 melanoma): 34.6 µM | GI50 (HCT-116 colon): 18.5 µM | TGI (HCT-116 colon): 36.5 µM | GI50 (OVCAR-3 ovarian): 16.3 µM | TGI (OVCAR-3 ovarian): 31.3 µM | TGI (SF-295 CNS): 75.4 µM | TGI (HS 578T breast): 81 µM | TGI (T-47D breast): > 100 µM | TGI (MOLT-4 leukemia): 65.8 µM

COc1cc(C2c3cc4c(cc3OC(Nc3ccc(C(=O)O)cc3)C2C)OCO4)cc(OC)c1OC (stereo unspecified)
TGI (MCF7 breast): 40 µM | TGI (HL-60(TB) leukemia): 0.541 µM | TGI (UACC-62 melanoma): > 61.9 µM | TGI (HCT-15 colon): > 100 µM | TGI (SN12C renal): > 100 µM | TGI (OVCAR-5 ovarian): > 100 µM | TGI (HT29 colon): > 34.2 µM | TGI (EKVX NSCLC): > 100 µM | TGI (UO-31 renal): 28 µM | TGI (SNB-75 CNS): 3.53 µM | TGI (SF-539 CNS): 0.561 µM | TGI (OVCAR-4 ovarian): > 52.9 µM | TGI (SNB-19 CNS): > 93.4 µM | TGI (SK-MEL-28 melanoma): > 100 µM | TGI (COLO 205 colon): 518 nM | TGI (MDA-MB-435): 0.265 µM | TGI (HOP-92 NSCLC): > 74.6 µM | TGI (SK-MEL-5 melanoma): 0.522 µM | TGI (U251 CNS): 30 µM | TGI (786-0 renal): > 100 µM | TGI (PC-3 prostate): > 100000 nM | TGI (KM12 colon): 1.66 µM | TGI (NCI-H460 lung): > 100 µM | TGI (SF-268 CNS): > 39.1 µM | TGI (A549 NSCLC): > 47.5 µM | TGI (IGROV1 ovarian): > 100 µM | TGI (ACHN renal): > 68.6 µM | TGI (HCC-2998 colon): 853 nM | TGI (HOP-62 NSCLC): > 100000 nM | TGI (MDA-MB-231 breast): 2060 nM | TGI (OVCAR-8 ovarian): > 100 µM | TGI (SW-620 colon): > 100 µM | TGI (CAKI-1 renal): 761 nM | TGI (LOX IMVI melanoma): > 100 µM | TGI (TK-10 renal): > 100 µM | TGI (NCI-H23 lung): > 68.7 µM | TGI (UACC-257 melanoma): > 94.1 µM | TGI (CCRF-CEM leukemia): > 41.8 µM | TGI (A498 renal): > 100 µM | TGI (RPMI-8226 leukemia): 25 µM | TGI (BT-549 breast): > 26.8 µM | TGI (NCI-H522 lung): 6.02 µM | TGI (RXF 393 renal): 92 µM | TGI (SK-MEL-2 melanoma): > 59.9 µM | TGI (NCI/ADR-RES ovarian): 4.9 µM | TGI (M14 melanoma): 31.8 µM | TGI (HCT-116 colon): 12.2 µM | TGI (SF-295 CNS): > 100 µM | TGI (T-47D breast): > 100 µM | TGI (MOLT-4 leukemia): 25.8 µM

Cn1nc(/C=C\C(=O)N2CC(CCl)c3c2cc(N)c2ccccc32)cc1/C=C/C(=O)N1CC(CCl)c2c1cc(N)c1ccccc21 (stereo unspecified)
TGI (MCF7 breast): > 100 µM | TGI (UACC-62 melanoma): < 0.01 µM | TGI (OVCAR-5 ovarian): < 0.01 µM | TGI (EKVX NSCLC): 0.0965 µM | TGI (OVCAR-4 ovarian): > 100 µM | TGI (K-562 leukemia): > 100 µM | TGI (SNB-19 CNS): 0.591 µM | TGI (PC-3 prostate): 59.6 nM | TGI (KM12 colon): > 100 µM | TGI (NCI-H460 lung): > 100 µM | TGI (SK-OV-3 ovarian): > 100 µM | TGI (ACHN renal): > 100 µM | TGI (HOP-62 NSCLC): 41.1 nM | TGI (MDA-MB-231 breast): < 10 nM | TGI (SW-620 colon): > 100 µM | TGI (CAKI-1 renal): < 10 nM | TGI (CCRF-CEM leukemia): < 0.01 µM | TGI (BT-549 breast): < 0.01 µM | TGI (NCI-H226 lung): < 0.01 µM | TGI (NCI/ADR-RES ovarian): 0.295 µM | TGI (M14 melanoma): < 0.01 µM | TGI (T-47D breast): > 100 µM | TGI (MOLT-4 leukemia): > 100 µM

N=C(N)c1ccc(-c2ccc(-c3ccc(Cl)cc3Cl)s2)cc1F
GI50 (DU-145 prostate): 1780 nM | TGI (DU-145 prostate): 3.16 µM | GI50 (SK-OV-3 ovarian): 3.05 µM | TGI (SK-OV-3 ovarian): 17.5 µM | GI50 (CAKI-1 renal): 1.63 µM | TGI (CAKI-1 renal): 2990 nM | GI50 (SR leukemia): 1.42 µM | TGI (SR leukemia): > 100 µM | GI50 (CCRF-CEM leukemia): 1.8 µM | TGI (CCRF-CEM leukemia): 4.67 µM | GI50 (RPMI-8226 leukemia): 2.07 µM | TGI (RPMI-8226 leukemia): 4.57 µM | GI50 (SK-MEL-2 melanoma): 2210 nM | TGI (SK-MEL-2 melanoma): 5.2 µM
